Laboratory results as given in publication PMC6856039 (Investigational New Drugs, 2019).
Read-outs that look alike come from different tables or passages of the source. Marks after values point to notes of the source that are not given here.

Key:
[1] = Experimental: PK parameters were evaluated on Day 1 and Day 15.
The planned sample size was 300 patients maximum, including 54 patients in the dose escalation phase, seven patients at each level of the first stage of the expansion phase, 20 patients at each level in the second stage of the expansion phase, and in the extension phase, 100, 40, 20, and 10 patients in Cohorts A, B, C, and D, respectively. The main analysis sets in each study phase are defined in Supplementary Table 1 (Online Resource 3). Safety and efficacy data are summarized using descriptive statistics. PK parameters were calculated according to the non-compartmental method. ORR, DCR, and median PFS were calculated along with 95% CIs. The statistical software used to perform statistical analyses was SAS version 9.2 (SAS Inc., Cary, NC, USA, RRID: SCR_008567). For the PK analysis, Phoenix® WinNonlin® Ver. 6.3 and 6.4 (Certara, Princeton, NJ, USA) was used.

[2] = tested on: T790M-positive NSCLC patients; assay type: in vivo, human; conditions: for median PFS / Best overall response: Not evaluable / Best overall response: Partial response / Best overall response: Progression disease / Best overall response: Stable disease / Disease control rate / Objective response rate: T790M-positive
Description: To assess the EGFR T790M mutation tumor status, mandatorily collected plasma from patients was processed, and isolated circulating cell-free DNA (cfDNA) was submitted for laboratory testing (Fluorescence Resonance Energy Transfer-based Preferential Formation Assay [F-PHFA] method) by central review. In some patients, collected tumor biopsies were submitted for EGFR genotyping (Therascreen® EGFR RGQ PCR kit [Qiagen, Venlo, Netherlands]).
Antitumor efficacy was based on objective tumor assessments according to the Response Evaluation Criteria in Solid Tumors criteria (version 1.1, 2009). Computed tomography scans were performed at baseline, every 6 weeks after starting administration, and at the time of discontinuation. The ORR, DCR, and PFS at each phase were assessed according to dose level and regimen. ORR was defined as the proportion of patients in which the best overall response was determined to be CR or PR and was calculated in patients with measurable lesions. DCR was defined as the proportion of patients in which the best overall response was determined to be CR, PR, or stable disease. PFS was defined as the median time from enrollment to PD or death from any cause.

[3] = BID 8 mg/day, cycle 1, day 15, n = 9
[4] = BID 12 mg/day, cycle 1, day 15, n = 4
[5] = QD 4 mg/day, cycle 1, day 15, n = 3
[6] = QD 8 mg/day, cycle 1, day 15, n = 9
[7] = QD 10 mg/day, cycle 1, day 15, n = 7
[8] = QD 12 mg/day, cycle 1, day 15, n = 2
[9] = QD 16 mg/day, cycle 1, day 15, n = 1

## C=CC(=O)N[C@H]1CCc2c(-c3cnc4ccccc4c3)c3c(N)ncnc3n2C1 [TAS-121]
[1]; [3]
  AUC0-12h, mean (standard deviation): 1520 (520) ng•h/mL
  Cmax, mean (standard deviation): 290 (104) ng/mL
  T1/2, mean (standard deviation): 5.11 (1.48) h
  Tmax, median (minimum–maximum): 1.00 (0.50–1.00) h
[1]; [4]
  AUC0-12h, mean (standard deviation): 5860 (1460) ng•h/mL
  Cmax, mean (standard deviation): 772 (201) ng/mL
  T1/2, mean (standard deviation): 8.84 (3.31) h
  Tmax, median (minimum–maximum): 2.00 (1.00–3.00) h
[1]; [5]
  AUC0-24h, mean (standard deviation): 2670 (1110) ng•h/mL
  Cmax, mean (standard deviation): 304 (13) ng/mL
  T1/2, mean (standard deviation): 8.83 (2.88) h
  Tmax, median (minimum–maximum): 1.00 (1.00–1.00) h
[1]; [6]
  AUC0-24h, mean (standard deviation): 4860 (2520) ng•h/mL
  Cmax, mean (standard deviation): 569 (312) ng/mL
  T1/2, mean (standard deviation): 8.60 (2.49) h
  Tmax, median (minimum–maximum): 1.00 (0.50–2.00) h
[1]; [7]
  AUC0-24h, mean (standard deviation): 8040 (4190) ng•h/mL
  Cmax, mean (standard deviation): 900 (376) ng/mL
  T1/2, mean (standard deviation): 8.61 (1.73) h
  Tmax, median (minimum–maximum): 2.00 (0.75–4.00) h
[1]; QD 12 mg/day, cycle 1, day 15, based on one patient
  T1/2: 8.12 (NA)^b h
[1]; [8]
  AUC0-24h, mean: 9500 (NA) ng•h/mL
  Cmax, mean: 1180 (NA) ng/mL
  Tmax, median (minimum–maximum): 1.12 (1.00–1.23) h
[1]; [9]
  AUC0-24h: 5870 (NA) ng•h/mL
  Cmax: 825 (NA) ng/mL
  T1/2: 6.44 (NA) h
  Tmax: 2.00 (NA) h
[2]; T790M-positive patients with measurable lesions, n = 86, regardless of the dosage
  objective response rate (ORR): 28%
[2]; T790M-positive patients, 8 mg/day BID
  objective response rate (ORR): 39%
[2]; 4 mg/day QD, 23 patients/17 events
  median PFS: 165 days
[2]; 4 mg/day QD, N = 15
  Best overall response: Not evaluable: 1 (6.7) n (%)
  Best overall response: Partial response: 4 (26.7) n (%)
  Best overall response: Progression disease: 7 (46.7) n (%)
  Best overall response: Stable disease: 3 (20.0) n (%)
  Disease control rate: 7 (46.7) n (%)
  Objective response rate: 4 (26.7) n (%)
[2]; 8 mg/day BID, 36 patients/21 events
  median PFS: 253 days
[2]; 8 mg/day BID, N = 33
  Best overall response: Not evaluable: 1 (3.0) n (%)
  Best overall response: Partial response: 13 (39.4) n (%)
  Best overall response: Progression disease: 8 (24.2) n (%)
  Best overall response: Stable disease: 11 (33.3) n (%)
  Disease control rate: 24 (72.7) n (%)
  Objective response rate: 13 (39.4) n (%)
[2]; 8 mg/day QD, 33 patients/25 events
  median PFS: 125 days
[2]; 8 mg/day QD, N = 28
  Best overall response: Not evaluable: 0 (0.0) n (%)
  Best overall response: Partial response: 6 (21.4) n (%)
  Best overall response: Progression disease: 11 (39.3) n (%)
  Best overall response: Stable disease: 11 (39.3) n (%)
  Disease control rate: 17 (60.7) n (%)
  Objective response rate: 6 (21.4) n (%)
[2]; 10 mg/day QD, N = 7
  Best overall response: Not evaluable: 0 (0.0) n (%)
  Best overall response: Partial response: 1 (14.3) n (%)
  Best overall response: Progression disease: 3 (42.9) n (%)
  Best overall response: Stable disease: 3 (42.9) n (%)
  Disease control rate: 4 (57.1) n (%)
  Objective response rate: 1 (14.3) n (%)
[2]; 10 mg/day QD, seven patients/three events
  median PFS: 401 days
[2]; 12 mg/day BID, N = 3
  Best overall response: Not evaluable: 1 (33.3) n (%)
  Best overall response: Partial response: 0 (0.0) n (%)
  Best overall response: Progression disease: 1 (33.3) n (%)
  Best overall response: Stable disease: 1 (33.3) n (%)
  Disease control rate: 1 (33.3) n (%)
  Objective response rate: 0 (0.0) n (%)
[2]; 12 mg/day QD, N = 1
  Best overall response: Not evaluable: 0 (0.0) n (%)
  Best overall response: Partial response: 0 (0.0) n (%)
  Best overall response: Progression disease: 1 (100.0) n (%)
  Best overall response: Stable disease: 0 (0.0) n (%)
  Disease control rate: 0 (0.0) n (%)
  Objective response rate: 0 (0.0) n (%)
[2]; Total, N = 87
  Best overall response: Not evaluable: 3 (3.4) n (%)
  Best overall response: Partial response: 24 (27.6) n (%)
  Best overall response: Progression disease: 31 (35.6) n (%)
  Best overall response: Stable disease: 29 (33.3) n (%)
  Disease control rate: 53 (60.9) n (%)
  Objective response rate: 24 (27.6) n (%)
